Test results: patent US5220001A, “Anthracycline glycoside derivatives” (Zaidan Hojim Biseibutsu Dong-A Pharm Co., priority 1989, dated 1993)
Structures can show the parent of a compound that is named as a salt. Where two headings read alike, the source gives them in different places. Blank lines part the entries; values can stand above or below the molecule they belong to.

Assays:
[1] = tested on: L1210 murine leukemia; assay: In vivo antitumor activity on DCF1 mice bearing L1210 murine leukemia; settings: for T/C (%): i.p. days 1, 5, 9, mean survival time vs control, 60-day observation
Description: The in vivo antitumor activity of the compounds of present invention was studied on DCF1 mice bearing L1210 murine leukemia. Healthy female DCF1 mice were inoculated by intraperitoneal injection with 1×10^5 L1210 leukemia cells per animal. The inoculated mice were then treated intraperitoneally on the days 1, 5, 9 beginning on day 1, 24 hours after inoculation of the leukemia cells with various doses of test compounds. Doxorubicin hydrochloride was administered for comparison. All test compounds and doxorubicin hydrochloride were dissolved in filtered (0.22 μm) distilled water. […] The results are shown in Table 1 where T/C(%) values are determined by dividing the mean survival time of the treated mice by that of the control mice, the quotient so obtained being multiplied by 100. The survival time of the mice which survived more than 60 days after tumor inoculation was scored as 60 days. An increase on the T/C(%) indicates an increase in the antitumor activity of the compound.

[2] = tested on: L1210 murine leukemia cells; assay: In vitro growth inhibition activity on L1210 murine leukemia cells (tetrazolium-based MTT colorimetric assay); assay type: cell-based; settings: Mus musculus
Description: In vitro growth inhibition activity of the compounds of present invention on L1210 murine leukemia cells was assessed by tetrazolium-based colorimetric assay described in Cancer Research Vol. 47, pp. 936-942, February 1987 with some modifications.
L1210 murine leukemia cells in exponential phase were plated at the density of 1×10^5 cells per well in 96-well microliter plates. The cell culture medium was RPMI 1640 (Roswell Park Memorial Institutes 1640) medium supplemented with 10% heat inactivated fetal bovine serum (FBS), 2mM L-glutamine, penicillin G sodium (100 units per ml of medium), and steptomycin sulfate (1 mg per ml of medium). The anthracycline compounds of present invention and doxorubicin hydrochloride were added to give final concentrations from 1 ng per ml to 300 ng per ml, while the control contained no drug.
The cells were incubated for 72 hours at 37.C. in an atmosphere of 10% CO2 and 90% air. At the end of drug exposure, 50 μl MTT(3-(4,5-dimethylthiazol-2-yl)-2,5-diphenyltetrazolium bromide) solution (2 mg per ml in phosphate-buffered saline) was added to each well and cultures were incubated at 37° C. for 4 hours in Co2 incubator. The MTT is reduced to water insoluble MTT formazan(1-(4,5-dimethylthiazol-2-yl)-3,5-diphenylformazan) by mitochondrial succinate dehydrogenase only in living cells. At the end of incubation, 200 μl of supernatant was removed and the MTT formazan crystal was dissolved by adding 200 μl dimethylsulfoxide with mixing them.
The plates were then read immediately at 540 nm on a scanning multiwell spectrophotometer (enzyme-linked immunosorbent assay reader; Biotech Instruments Inc., Burlington, VT). The absorbance value corrected against uninoculated blank values. The absorbance values are directly proportional to the cell numbers in living state. The IC 50 defined a 50% reduction of absorbance against untreated control were calculated from dose-response curve and are shown in Table 2.

[3] = L1210 cells, 72 hours, MTT, 50% reduction of absorbance against untreated control, read-out: IC50

IC50 [2, 3]: 0.0163 µg/mL
Compound: COc1cccc2c1C(=O)c1c(O)c3c(c(O)c1C2=O)CC(O)(C(=O)COC(=O)C1CCCN1)CC3OC1OC(C)C(O)C(O)C1F [Example 13, 7-0-(2,6-dideoxy-2-fluoro-α-L-talopyranosyl)adriamycinone 14-0-L-prolinate HCl salt]
T/C (%) ([1]; dose 0.125 mg/kg): 140%
T/C (%) ([1]; dose 0.250 mg/kg): 159%
T/C (%) ([1]; dose 0.500 mg/kg): 213%
T/C (%) ([1]; dose 1.000 mg/kg): 313%
T/C (%) ([1]; dose 2.000 mg/kg): 367%
T/C (%) ([1]; dose 4.000 mg/kg): 283%
T/C (%) ([1]; dose 8.000 mg/kg): 427%
T/C (%) ([1]; dose 16.000 mg/kg): 635%
T/C (%) ([1]; dose 32.000 mg/kg): 525%

IC50 [2, 3]: 0.0101 µg/mL
Compound: COc1cccc2c1C(=O)c1c(O)c3c(c(O)c1C2=O)CC(O)(C(=O)COC(=O)CCN)CC3OC1OC(C)C(O)C(O)C1F [Example 5, 7-0-(2,6-dideoxy-2-fluoro-α-L-talopyranosyl)adriamycinone 14-0-β-alaninate HCl salt]
T/C (%) ([1]; dose 0.125 mg/kg): 140%
T/C (%) ([1]; dose 0.250 mg/kg): 162%
T/C (%) ([1]; dose 0.500 mg/kg): 189%
T/C (%) ([1]; dose 1.000 mg/kg): 248%
T/C (%) ([1]; dose 2.000 mg/kg): 361%
T/C (%) ([1]; dose 4.000 mg/kg): 333%
T/C (%) ([1]; dose 8.000 mg/kg): 500%
T/C (%) ([1]; dose 16.000 mg/kg): 636%
T/C (%) ([1]; dose 32.000 mg/kg): 542%

Compound: COc1cccc2c1C(=O)c1c(O)c3c(c(O)c1C2=O)CC(O)(C(=O)COC(=O)CCCCCN)CC3OC1OC(C)C(O)C(O)C1F [Example 7, 7-0-(2,6-dideoxy-2 fluoro-α-L-talopyranosyl)adriamycinone 14-0-(6-aminohexanoate) HCl salt]
T/C (%) ([1]; dose 0.125 mg/kg): 111%
T/C (%) ([1]; dose 0.250 mg/kg): 122%
T/C (%) ([1]; dose 0.500 mg/kg): 168%
T/C (%) ([1]; dose 1.000 mg/kg): 242%
T/C (%) ([1]; dose 2.000 mg/kg): 329%
T/C (%) ([1]; dose 4.000 mg/kg): 348%
T/C (%) ([1]; dose 8.000 mg/kg): 367%
T/C (%) ([1]; dose 16.000 mg/kg): 441%
T/C (%) ([1]; dose 32.000 mg/kg): 663%
IC50 ([2]; L1210, 72 h): 0.0745 µg/mL

Compound: COc1cccc2c1C(=O)c1c(O)c3c(c(O)c1C2=O)C[C@@](O)(C(=O)CO)C[C@@H]3O[C@H]1C[C@H](N)[C@H](O)[C@H](C)O1 [Doxorubicin hydrochloride, reference compound]
toxicity (decrease in T/C(%) at high dose) ([1]; 16 mg/kg compared with 8 mg/kg): significant decrease in T/C(%)
T/C (%) ([1]; dose 0.125 mg/kg): 141%
T/C (%) ([1]; dose 0.250 mg/kg): 170%
T/C (%) ([1]; dose 0.500 mg/kg): 218%
T/C (%) ([1]; dose 1.000 mg/kg): 242%
T/C (%) ([1]; dose 2.000 mg/kg): 242%
T/C (%) ([1]; dose 4.000 mg/kg): 469%
T/C (%) ([1]; dose 8.000 mg/kg): 303%
T/C (%) ([1]; dose 16.000 mg/kg): 109%
IC50 ([2]; L1210, 72 h): 0.0373 µg/mL

IC50 [2, 3]: 0.0143 µg/mL
Compound: COc1cccc2c1C(=O)c1c(O)c3c(c(O)c1C2=O)CC(O)(C(=O)COC(=O)C(C)N)CC3OC1OC(C)C(O)C(O)C1F [Example 9, 7-0-(2,6-dideoxy-2-fluoro-α-L-talopyranosyl)adriamycinone 14-0-L-alaninate HCl salt]
T/C (%) ([1]; dose 0.125 mg/kg): 171%
T/C (%) ([1]; dose 0.250 mg/kg): 190%
T/C (%) ([1]; dose 0.500 mg/kg): 244%
T/C (%) ([1]; dose 1.000 mg/kg): 287%
T/C (%) ([1]; dose 2.000 mg/kg): 356%
T/C (%) ([1]; dose 4.000 mg/kg): 468%
T/C (%) ([1]; dose 8.000 mg/kg): 488%
T/C (%) ([1]; dose 16.000 mg/kg): 660%
T/C (%) ([1]; dose 32.000 mg/kg): 727%

IC50 [2, 3]: 0.0155 µg/mL
Compound: COc1cccc2c1C(=O)c1c(O)c3c(c(O)c1C2=O)CC(O)(C(=O)COC(=O)C(N)C(C)C)CC3OC1OC(C)C(O)C(O)C1F [Example 11, 7-0-(2,6-dideoxy-2-fluoro-α-L-talopyranosyl)adriamycinone 14-0-L-valinate HCl salt]
T/C (%) ([1]; dose 0.125 mg/kg): 150%
T/C (%) ([1]; dose 0.250 mg/kg): 168%
T/C (%) ([1]; dose 0.500 mg/kg): 226%
T/C (%) ([1]; dose 1.000 mg/kg): 298%
T/C (%) ([1]; dose 2.000 mg/kg): 492%
T/C (%) ([1]; dose 4.000 mg/kg): 559%
T/C (%) ([1]; dose 8.000 mg/kg): 586%
T/C (%) ([1]; dose 16.000 mg/kg): 727%
T/C (%) ([1]; dose 32.000 mg/kg): 252%

IC50 [2, 3]: 0.0134 µg/mL
Compound: COc1cccc2c1C(=O)c1c(O)c3c(c(O)c1C2=O)CC(O)(C(=O)COC(=O)CN)CC3OC1OC(C)C(O)C(O)C1F [Example 3, 7-0-(2,6-dideoxy-2-fluoro-α-L-talopyranosyl)adriamycinone 14-0-glycinate HCl salt]
cure of tumored mice ([1]; at 32 mg/kg, 16 mg/kg and 8 mg/kg i.p.): cured all tumored mice
T/C (%) ([1]; dose 0.125 mg/kg): 186%
T/C (%) ([1]; dose 0.250 mg/kg): 238%
T/C (%) ([1]; dose 0.500 mg/kg): 328%
T/C (%) ([1]; dose 1.000 mg/kg): 230%
T/C (%) ([1]; dose 2.000 mg/kg): 255%
T/C (%) ([1]; dose 4.000 mg/kg): 279%
T/C (%) ([1]; dose 8.000 mg/kg): 727%
T/C (%) ([1]; dose 16.000 mg/kg): 727%
T/C (%) ([1]; dose 32.000 mg/kg): 727%
